US7968093B2, “Fully human antibodies directed against the human insulin-like growth factor-1 receptor” (ImClone LLC, priority 2003, dated 2011)

Tests used:
[1] = tested on: HT-29 human colon carcinoma; test: HT-29 xenograft, A12 with CPT-11 or paclitaxel; type: in vivo, nu/nu mice; settings: for inhibition of growth of HT-29 xenografts compared to TBS control: single agent
Description: […] nu/nu mice were injected subcutaneously with HT-29 human colon carcinoma cell suspension, at 5×10^6 cells in 0.4 ml mixed 1:1 with Matrigel. […] All treatments were administered by intraperitoneal injection.
Treatment continued for six weeks and tumor measurements were recorded twice weekly using the formula Volume=(π/6)l×w^2. At day 21 four animals per group were sacrificed and the tumors resected for histological evaluation. Treatment and tumor measurements continued on the remaining animals until day 40. At that time final tumor measurements were recorded, animals sacrificed, and four per group had tumor resected for endpoint histological evaluation.

[2] = tested on: HT-29 human colorectal cancer cells; test: HT-29 xenograft, 2F8 alone or with CPT-11; type: in vivo, athymic nude (nu/nu) mice; settings: 2F8 0.5 mg or 1 mg IP every three days; CPT-11 100 mg/kg IP once a week
Description: We were interested to determine if the anti-IGF-IR antibodies were capable of inhibiting human tumor growth in vivo in a nude mouse xenograft model. Tumors were induced in 3-4 week old athymic nude (nu/nu) mice by subcutaneous injection of 2-3 million viable HT-29 human colorectal cancer cells in cell culture medium. The tumors were allowed to establish and antibody treatment started when the tumor volume reached 200 mm^3. Ten animals were injected with tumor cells per treatment group. Antibody was injected intraperitoneally (IP) every three days at 1 mg or 0.5 mg in 0.5 ml TBS. The drug irenotecan (CPT-11) (LKT Laboratories) was injected IP (100 mg/kg) once a week for four weeks from the initiation of antibody treatment. Control animals received a class matched irrelevant human IgG antibody. Tumor measurements were performed at regular intervals using Vernier calipers, measuring height, width, and length and calculated to determine the total tumor volume. The study was terminated when control tumors reached 3000 mm^3.

[3] = tested on: BxPC-3 human pancreatic carcinoma cells; test: BxPC-3 xenograft, A12 with CPT-11 or gemcitabine; type: in vivo, athymic nu/nu mice; settings: for animals with partial tumor regressions: after five weeks of treatment
Description: Athymic nu/nu mice were injected subcutaneously with 2×10^6 BxPC-3 human pancreatic carcinoma cells mixed 1:1 with Matrigel. […] All treatments were administered by intraperitoneal injection. Tumor measurements were recorded twice weekly using the formula Volume=(π/6)l×w^2.
At day 18 three animals per group were sacrificed and the tumors resected for midpoint histological evaluation. Treatment and tumor measurements continued on the remaining animals until day 44 with the exception of the TBS group. […] At termination of the study final tumor measurements were recorded, animals sacrificed, and four per group had tumors resected for endpoint histological evaluation.

[4] = day 12, ip, A12 1 mg 3 times per week, irinotecan 2 mg or paclitaxel 121 μg every 7 days
[5] = day 19, ip, A12 1 mg 3 times per week, irinotecan 1 mg or gemcitabine 2.5 mg every 7 days

| SMILES | T/C % [1, 4] [%] | T/C % ([1]; day 15, same regimens) [%] | T/C % ([1]; day 19, same regimens) [%] | T/C % ([1]; day 22, same regimens) [%] | T/C % ([1]; day 26, same regimens) [%] | T/C % ([1]; day 29, same regimens) [%] | T/C % ([1]; day 33, same regimens) [%] | T/C % ([1]; day 36, same regimens) [%] | T/C % ([1]; day 40, same regimens) [%] | inhibition of growth of HT-29 xenografts compared to TBS control [1] | animals with partial tumor regressions [3] | T/C % [3, 5] [%] | T/C % ([3]; day 23, same regimens) [%] | T/C % ([3]; day 26, same regimens) [%] | T/C % ([3]; day 30, same regimens) [%] | T/C % ([3]; day 32, same regimens) [%] | T/C % ([3]; day 37, same regimens) [%] | other results |
| --- | --- | --- | --- | --- | --- | --- | --- | --- | --- | --- | --- | --- | --- | --- | --- | --- | --- | --- |
| CCc1c2c(nc3ccc(OC(=O)N4CCC(N5CCCCC5)CC4)cc13)-c1cc3c(c(=O)n1C2)COC(=O)[C@]3(O)CC [CPT-11, irinotecan] | 63 | 59 | 61 | 52 | 47 | 45 | 40 | 40 | 41 | significantly (P<0.02) inhibited | no tumor regressions | 52 | 45 | 35 | 34 | 34 | 26 | inhibition of tumor growth [2]: responses were similar to treatment with CPT-11 alone |
| Nc1ccn([C@@H]2O[C@H](CO)[C@@H](O)C2(F)F)c(=O)n1 [Gemcitabine, gemcitabine] | – | – | – | – | – | – | – | – | – | – | no tumor regressions | 68 | 65 | 58 | 56 | 48 | 37 | Regressions (individual tumor volumes < day 1 of treatment) ([3]; day 19, animals regressing/animals in group): 0/11; Regressions (individual tumor volumes < day 1 of treatment) ([3]; day 23): 0/8; Regressions (individual tumor volumes < day 1 of treatment) ([3]; day 26): 0/8; Regressions (individual tumor volumes < day 1 of treatment) ([3]; day 30): 0/8; Regressions (individual tumor volumes < day 1 of treatment) ([3]; day 32): 0/8; Regressions (individual tumor volumes < day 1 of treatment) ([3]; day 37): 0/8; Regressions (individual tumor volumes < day 1 of treatment) ([3]; day 41): 0/8; Regressions (individual tumor volumes < day 1 of treatment) ([3]; day 44): 0/7 |
| CC(=O)O[C@H]1C(=O)[C@@]2(C)[C@H]([C@H](OC(=O)c3ccccc3)[C@]3(O)C[C@H](OC(=O)[C@H](O)[C@@H](NC(=O)c4ccccc4)c4ccccc4)C(C)=C1C3(C)C)[C@]1(OC(C)=O)CO[C@@H]1C[C@@H]2O [paclitaxel] | 66 | 59 | 62 | 56 | 54 | 55 | 52 | 45 | 52 | significantly (P<0.02) inhibited | – | – | – | – | – | – | – | – |
